System: rabbit ventricular cardiomyocytes
Experiment: Annexin V marking of phosphatidylserine (apoptosis) after doxorubicin
Type: cell-based
Conditions: 3 hrs after doxorubicin, control 100%
Experimental: Isolated ventricular cells are obtained from hearts of male New Zealand rabbits as described in A. d'Anglemont de Tassigny et al., Fund. Clin. Pharmacol, 18: 531-38, 2004. Briefly, the rabbits (2.0-2.5 kg) are anaesthetized with a pentobarbital solution (50 mg/kg) and they then receive heparin (200 IU/kg). The hearts are excised and immediately perfused, for 10-15 minutes by means of a Langendorff apparatus without recirculation with an oxygenated tyrode (calcium-free) isotonic solution (95%, 2-5% CO2) (in mM: NaCl 135, KCl 5.4, Na2PO4 0.33, MgCl2 1.0, HEPES 10, pH adjusted to 7.4 with 1N NaOH at 37° C., 280-300 mOsmol/kgH2O). Next, all the hearts are perfused for 3 minutes in the “recirculation” mode with the same calcium-free Tyrode solution (coronary flow rate, 10-15 mL/min) added with 1 mg/mL of type II collagenase and 0.28 mg/mL of XIV type protease. Finally, all the hearts are perfused in a mode without any recirculation with the same solution of Tyrode supplemented with 0.3 mM of CaCl2 for 10 min. The left ventricle is removed and cut into small pieces; cell dissociation is achieved by mild mechanical stirring. Extracellular calcium is added by increments every 15 minutes, in order to reach a physiological concentration of 1.0 mM. […]
Annexin V marking of phosphatidylserine was used as a quantitative method for measuring apoptosis by using the MiniMacs cell isolation kit (Miltenyi Biotec, Bergisch, Gladbach, Germany). […] The column is removed from the magnetic field, the cells exposing phosphatidylserine, magnetically retained, are eluted as a positive fraction and counted with a Mallassez cell counter. […]
Apoptosis is induced in isolated cardiomyocytes by 3-8 hour exposure to 1 μM of doxorubicin added into an isotonic solution containing (in mM) NaCl 110, KCl 5.4, Na2PO4 0.33, NaHCO3 25, glucose 5, MgCl2 0.8, CaCl2 1, pH adjusted to 7.4. […] The contractility of cardiomyocytes was measured every hour during the 8 hrs of exposure to doxorubicin. […]

CC(C)CCC[C@@H](C)[C@H]1CC[C@H]2[C@@H]3CC/C(=N\O)[C@](C)(CCCO)[C@H]3CC[C@]12C [3,5-seco-4-nor-cholestan-5-one oxime-3-ol] was tested, and the “Apoptosis as % of change in annexin V marking” value (doxorubicin 1 μM + compound 0.1 μM) was 116.3% and the “Apoptosis as % of change in annexin V marking” value (doxorubicin 1 μM + compound 0.3 μM) was 137.3%.
